This note sets out measurements from EP2949653A1, “ISOXAZOLE DERIVATIVES AS LEUKOTRIENE BIOSYNTHESIS INHIBITORS” (Banoglu, Erden, priority 2014, dated 2015).

A word on the IC50: it is the concentration at which inhibition is half-maximal. The remaining activity is the share of the control activity or signal that is left under treatment.

Where only a bound is given, the exact number is not on record here.

The subject of test [1] is 5-LO mediated product formation. The experiment in a line: 5-LO mediated product formation in intact neutrophils stimulated with A23187 (cell-based). Further details: species or system human. The settings on record: for activity at 1 µM / activity at 10 µM: PMNL, human neutrophils, 2.5 µM A23187, means ± SE, n = 3-6; for activity at 1 µM: remaining activity at 1 µM inhibitor, read-out: 5-LO mediated product formation in intact neutrophils (PMNL) (% of control) at 1 µM; for activity at 10 µM: remaining activity at 10 µM inhibitor, read-out: 5-LO mediated product formation in intact neutrophils (PMNL) (% of control) at 10 µM; for IC50: Neutrophil, intact human neutrophils stimulated with 2.5 µM A23187, mean ± SE, n = 3-4, read-out: Inhibition of purified 5-LO activity IC50 (µM) cell based. The method, then:
(§1) Cell based and cell-free assays carried out in biological studies, immunofluorescence microscopy analysis and zymosan-induced peritonitis in mice are performed as described hereinabove (Pegola, C. and et al., British J. Pharmacology, 2014, D01:10.1111/bph.12625). In the cell based assays (intact neutrophils or monocytes), 5-LO mediated product formation is started, after pre-incubation with test compounds (or control DMSO) for 15 min. at 37 °C, with addition of Ca-ionophore A23187 (2.5 µM) to the fresh 5 x 10^6 neutrophils or monocytes suspended in 1 ml of PGC buffer (phosphate buffered saline (PBS) solution containing 1 mg ml^-1 glucose and 1mM CaCl2, pH 7.4). After the incubation for 10 min. at 37 °C, the reaction is ended with addition of 1 ml of methanol, and 30 µL 1 N HCl, 200 ng prostaglandin B1 and 500 µL PBS are added to the mixture. In cell-free assays (isolated 5-LO and cell homogenates), human recombinant 5-LO protein or 40,000g supernatant is added to 1 ml of 5-LO reaction mixture (PBS, pH 7.4, 1 mM EDTA, 1 mM ATP), and then incubated with test compounds (or control DMSO) for 10 min. at 4°C, heated to 37 °C and 2 mM CaCl2 as well as AA at certain concentrations are added. The reaction is ended as described for the cell-based assays. Resulting 5-LO mediated products are extracted and analysed by the known method of high pressure liquid chromatography (HPLC) (Pergola, C. Proc Natl. Acad. Sci. U.S.A. 2008, 105, 19881). 5-LO mediated product formation (LTB4 and all trans isomers, and 5 (S)-hydro(pero)xy-6-trans-8, 11, 14-cis-eicosatetraenoic acid, 5-H(p)ETE) is expressed as ng per 10^6 cell. Cysteinyl-LTs have not been analyzed because that the amount of C4, D4 and E4 and LTB4 oxidation products are below the detection limit.
(§2) Compounds were tested in intact human neutrophils stimulated with 2.5 µM A23187 under cell based conditions and on purified 5-LO under cell free conditions. ^aData are given as remaining activity as a percentage of control (100%) at 10 µM or 1 µM inhibitor concentrations (means ± SE, n = 3-6).
Compound 9hj inhibited 5-LO mediated product formation with IC50 of 60 nM in human neutrophils. Neutrophils are stimulated with Ca-ionophore A23187 (2.5 µM), without the addition of exogenous arachidonic acid (AA), after pre-incubation with 9hj or vehicle (0.1 % DMSO). 100% controls correspond to 275.7 ng mL^-1 of 5-LO mediated products (Figure 1).
100% controls correspond to 328.97 ng mL^-1 of 5-LO mediated products.

Test [2] addresses T1, purified 5-LO (Homo sapiens, UniProt P09917).
T1 sequence (P09917 1-674): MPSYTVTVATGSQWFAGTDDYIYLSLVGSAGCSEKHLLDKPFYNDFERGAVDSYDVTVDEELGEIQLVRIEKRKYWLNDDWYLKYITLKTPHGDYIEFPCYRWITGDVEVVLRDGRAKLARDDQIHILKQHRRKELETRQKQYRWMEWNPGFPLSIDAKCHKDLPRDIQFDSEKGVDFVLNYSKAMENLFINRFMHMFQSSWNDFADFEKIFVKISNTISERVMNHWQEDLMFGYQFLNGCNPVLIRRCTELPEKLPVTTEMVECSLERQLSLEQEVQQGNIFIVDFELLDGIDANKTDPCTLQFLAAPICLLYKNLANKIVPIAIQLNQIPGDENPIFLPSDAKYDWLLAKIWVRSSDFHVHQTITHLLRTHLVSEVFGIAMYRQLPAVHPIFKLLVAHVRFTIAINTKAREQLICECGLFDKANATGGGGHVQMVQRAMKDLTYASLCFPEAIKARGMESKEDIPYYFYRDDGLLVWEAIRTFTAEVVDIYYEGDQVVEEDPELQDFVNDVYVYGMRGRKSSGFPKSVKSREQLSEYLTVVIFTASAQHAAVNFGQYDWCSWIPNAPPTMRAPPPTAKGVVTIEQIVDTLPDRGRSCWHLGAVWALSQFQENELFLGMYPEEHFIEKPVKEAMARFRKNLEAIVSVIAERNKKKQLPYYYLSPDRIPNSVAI
The experiment in a line: Purified / human recombinant 5-LO activity (cell-free). The settings on record: purified 5-LO under cell free conditions; mean ± SE, n = 3-4; read-out: Inhibition of purified 5-LO activity IC50 (µM) cell-free. Type of test: biochemical. The protocol: as §1, §2
9hj was added 15 min before addition of 2 mM Ca^2+ plus 3 µM, 10 µM and 30 µM AA. 100% controls correspond to 200.35 ng mL^-1 for 3 µM AA, 514.36 ng mL^-1 for 10 µM AA and 537.73 ng mL^-1 for 30 µM AA.

Test [3] deals with T1, purified 5-LO. Described as above. It is filed as biochemical. The settings on record: remaining 5-LO activity (percentage of uninhibited control) at 30 µM test compound.

As to `CCOC(=O)c1noc(-c2ccc(OCc3ccccc3C)cc2)c1-c1ccc(Cl)cc1` [Compound 7aj, Ethyl 4-(4-chlorophenyl)-5-(4-((2-methylbenzyl)oxy)phenyl)isoxazole-3-carboxylate], in test [1], the activity at 1 µM turned out to be 85.2 ± 0.7% and the activity at 10 µM came out at 71.9 ± 10.3%.

`CCOC(=O)c1noc(-c2ccc(OCc3cccc(F)c3)cc2)c1-c1ccc(Cl)cc1` [Compound 7bj, Ethyl 4-(4-chlorophenyl)-5-(4-((3-fluorobenzyl)oxy)phenyl)isoxazole-3-carboxylate]: in test [1], the activity at 1 µM stood at 66.1 ± 14.3% and the activity at 10 µM amounted to 55.3 ± 12.1%.

As for `CCOC(=O)c1noc(-c2ccc(OCc3ccc(C)cc3)cc2)c1-c1ccc(Cl)cc1` [Compound 7cj, Ethyl 4-(4-chlorophenyl)-5-(4-((4-methylbenzyl)oxy)phenyl)isoxazole-3-carboxylate], in test [1], the activity at 1 µM stood at 78.3 ± 16.2% and the activity at 10 µM amounted to 61.4 ± 12.4%.

`CCOC(=O)c1noc(-c2ccc(OCc3ccccc3C)cc2)c1-c1cccc(Cl)c1` [Compound 8aj, Ethyl 4-(3-chlorophenyl)-5-(4-((2-methylbenzyl)oxy)phenyl)isoxazole-3-carboxylate]: in test [1], the activity at 1 µM was 88 ± 10.2% and the activity at 10 µM turned out to be 83.4 ± 16.2%.

As for `CCOC(=O)c1noc(-c2ccc(OCc3cccc(F)c3)cc2)c1-c1cccc(Cl)c1` [Compound 8bj, Ethyl 4-(3-chlorophenyl)-5-(4-((3-fluorobenzyl)oxy)phenyl)isoxazole-3-carboxylate], in test [1], the activity at 1 µM stood at 90.6 ± 11.5% and the activity at 10 µM stood at 80.8 ± 11.8%.

`Cc1ccccc1COc1ccc(-c2onc(C(=O)O)c2-c2ccc(Cl)cc2)cc1` [Compound 9aj, 4-(4-Chlorophenyl)-5-(4-((2-methylbenzyl)oxy)phenyl)isoxazole-3-carboxylic acid]: in test [1], the IC50 is 1.7 ± 0.47 µM, the activity at 1 µM came out at 74.5 ± 8.6% and the activity at 10 µM was 13.1 ± 3.9%. Besides, the concentration for half-maximal inhibition (IC50) on purified 5-LO [2] turned out to be 0.48 ± 0.03 µM.

As to `O=C(O)c1noc(-c2ccc(OCc3cccc(F)c3)cc2)c1-c1ccc(Cl)cc1` [Compound 9bj, 4-(4-Chlorophenyl)-5-(4-((3-fluorobenzyl)oxy)phenyl)isoxazole-3-carboxylic acid], in test [1], the IC50 turned out to be 1.29 ± 0.61 µM, the activity at 1 µM is 52.3 ± 8.3% and the activity at 10 µM came out at 19.6 ± 9.5%. The IC50 at purified 5-LO [2] was 0.38 ± 0.04 µM.

In the case of `Cc1ccc(COc2ccc(-c3onc(C(=O)O)c3-c3ccc(Cl)cc3)cc2)cc1` [Compound 9cj, 4-(4-Chlorophenyl)-5-(4-((4-methylbenzyl)oxy)phenyl)isoxazole-3-carboxylic acid], in test [1], the half-maximal inhibitory concentration (IC50) came out at 1.4 ± 0.09 µM, the activity at 1 µM came to 55.8 ± 4.31% and the activity at 10 µM came out at 15.7 ± 4.53%. Moreover, the 50% inhibitory concentration (IC50) on purified 5-LO [2] was determined as 5.94 ± 0.36 µM.

On to `Cc1ccc(COc2ccc(-c3onc(C(=O)O)c3-c3ccc(Cl)cc3)c(C)c2)cc1` [Compound 9ck, 4-(4-Chlorophenyl)-5-(2-methyl-4-((4-methylbenzyl)oxy)phenyl)isoxazole-3-carboxylic acid], for which, in test [1], the 50% inhibitory concentration (IC50) turned out to be 1.2 ± 0.11 µM, the activity at 1 µM is 51 ± 6.68% and the activity at 10 µM came out at 2.26 ± 1.86%. Also, the IC50 on purified 5-LO [2] was more than 30 µM. Further, the remaining activity at 30 µM at purified 5-LO [3] turned out to be 53%.

For `N#Cc1cccc(COc2ccc(-c3onc(C(=O)O)c3-c3ccc(Cl)cc3)cc2)c1` [Compound 9dj, 4-(4-Chlorophenyl)-5-(4-((3-cyanobenzyl)oxy)phenyl)isoxazole-3-carboxylic acid], in test [1], the IC50 turned out to be 4.13 ± 0.33 µM, the activity at 1 µM was found to be 70 ± 9.14% and the activity at 10 µM was found to be 6.91 ± 3.92%. The IC50 on purified 5-LO [2] is 16.3 ± 5.95 µM.

`Cc1cc(OCc2cccc(C#N)c2)ccc1-c1onc(C(=O)O)c1-c1ccc(Cl)cc1` [Compound 9dk, 4-(4-Chlorophenyl)-5-(4-((3-cyanobenzyl)oxy)-2-methylphenyl)isoxazole-3-carboxylic acid]: in test [1], the IC50 came to 2.36 ± 0.32 µM, the activity at 1 µM came out at 77.4 ± 13.2% and the activity at 10 µM came to 0.42 ± 0.21%. Moreover, at purified 5-LO [2], the half-inhibitory concentration (IC50) was determined as 5.01 ± 1.38 µM.

For `O=C(O)c1noc(-c2ccc(OCc3ccccc3Cl)cc2)c1-c1ccc(Cl)cc1` [Compound 9ej, 5-(4-((2-chlorobenzyl)oxy)phenyl)-4-(4-chlorophenyl)isoxazole-3-carboxylic acid], in test [1], the IC50 was 1.2 ± 0.23 µM, the activity at 1 µM is 65.7 ± 5.9% and the activity at 10 µM was found to be 5.1 ± 1.46%. Besides, on purified 5-LO [2], the 50% inhibitory concentration (IC50) was determined as 6.11 ± 0.9 µM.

As to `O=C(O)c1noc(-c2ccc(OCc3ccccc3C(F)(F)F)cc2)c1-c1ccc(Cl)cc1` [Compound 9fj, 4-(4-Chlorophenyl)-5-(4-((2-(trifluoromethyl)benzyl)oxy)phenyl)isoxazole-3-carboxylic acid], in test [1], the half-maximal inhibitory concentration (IC50) came to 0.77 ± 0.19 µM, the activity at 1 µM amounted to 52.8 ± 5.94% and the activity at 10 µM turned out to be 5.5 ± 2.21%. For the same molecule, on purified 5-LO [2], the half-inhibitory concentration (IC50) stood at 6.04 ± 0.72 µM.

Turning to `O=C(O)c1noc(-c2ccc(OCc3ccccn3)cc2)c1-c1ccc(Cl)cc1` [Compound 9gj, 4-(4-Chlorophenyl)-5-(4-(pyridin-2-ylmethoxy)phenyl)isoxazole-3-carboxylic acid], in test [1], the IC50 stood at 4.09 ± 0.12 µM, the activity at 1 µM is 82.1 ± 15.2% and the activity at 10 µM is 21.3 ± 8.34%. For the same molecule, the IC50 on purified 5-LO [2] came out at 7.39 ± 2.45 µM.

`Cc1ccccc1COc1ccc(-c2onc(C(=O)O)c2-c2cccc(Cl)c2)cc1` [Compound 10aj, 4-(3-Chlorophenyl)-5-(4-((2-methylbenzyl)oxy)phenyl)isoxazole-3-carboxylic acid]: in test [1], the IC50 was 2.08 ± 0.33 µM, the activity at 1 µM was 84.5 ± 9.1% and the activity at 10 µM amounted to 0.7 ± 0.7%. Further, the IC50 on purified 5-LO [2] was 0.5 ± 0.03 µM.

For `O=C(O)c1noc(-c2ccc(OCc3cccc(F)c3)cc2)c1-c1cccc(Cl)c1` [Compound 10bj, 4-(3-Chlorophenyl)-5-(4-((3-fluorobenzyl)oxy)phenyl)isoxazole-3-carboxylic acid], in test [1], the IC50 amounted to 1.64 ± 0.11 µM, the activity at 1 µM was determined as 66.7 ± 8.5% and the activity at 10 µM was 8.4 ± 5.1%. Moreover, the IC50 on purified 5-LO [2] is 0.38 ± 0.03 µM.

Regarding `Cc1cc(OCc2cccc(F)c2)ccc1-c1onc(C(=O)O)c1-c1cccc(Cl)c1` [Compound 10bk, 4-(3-Chlorophenyl)-5-(4-((3-fluorobenzyl)oxy)-2-methylphenyl)isoxazole-3-carboxylic acid], in test [1], the IC50 was determined as 0.82 ± 0.19 µM, the activity at 1 µM stood at 48.6 ± 7.9% and the activity at 10 µM was 9.8 ± 3.6%. Moreover, the half-maximal inhibitory concentration (IC50) on purified 5-LO [2] was found to be 1.12 ± 0.14 µM.
